Results reported in US20060046972A1, “Cytotoxic nucleoside analog compound 003 for treating cancer” (Parker Hughes Institute, priority 2004, published 2006).

Columns and labels:
[1] = Stability in simulated intestinal fluid; format: in vitro ADME
Procedure: (§1) Plasma samples, simulated gastric fluid and intestinal fluids (United State Pharmacopeia XXII methods) were separately spiked with COMPOUND 003 to yield final concentrations of 500 μM. Spiked samples were incubated at 37° C. At a predetermined time (5, 10, 15, 30 60 and 120 minutes), an aliquot (200 μl) of the spiked plasma sample was extracted as described above.

DT40, chicken B lymphoma = test: DNA flow cytometry of cell cycle arrest, DT40; format: cell-based; settings: 100 μM, 48 hour
Procedure: (§2) Exponentially growing tumor cells were cultured at 1×10^6 cells/ml in clonogenic medium (RPMI 1640 medium +1% penicillin/streptomycin +10% heat-inactivated fetal bovine serum, 2 mML-glutamine, and 10 mM Hepes buffer) in the presence or absence of 100 μM compound 003 for 48 hour at 37° C., 5% CO2. At 48 h, cells were washed two times in fresh clonogenic medium, trypsinized, fixed in ice cold ethanol and labeled with propidium iodide to quantify their DNA content, as described previously (See, for example, Navara, et al., 2001, Anticancer Drugs. 12:369). Quantitative DNA analysis was performed on a Becton Dickenson Calibur flow cytometer equipped with a Consort 40 computer using the COTFIT program, which includes CELLCY, a cell cycle distribution function that fits DNA content histograms and calculates-the percentages of cells in G, S, and GM phases of the cell cycle, as described, for example, in Uckun et al., 1996, J Biol Chem. 271, 6389.

[2] = Stability in simulated gastric fluid; format: in vitro ADME
Procedure: as §1

NALM6 cells = test: Gene profiling, Atlas Human cDNA Expression arrays; format: cell-based
Procedure: Gene Profiling using the Atlas Human cDNA Expression arrays from Molecular Dynamics was preformed according to the manufacturer's specification, as described below.
Total RNA was prepared from NALM6 cells treated with Compound 003 (5, 50TM, vehicle) using Tripure isolation reagent (Boehringer Mannheim); the reagent is a monophasic solution of phenol and guanidine thiocyanate, followed by Dnase treatment (RQ1 Rnase-Free Dnase, Promega). Total RNA was quantified using standard spectrophotometric methods.
For probe preparation and hybridization, approximately 5 micrograms of total RNA was converted into radioactively labeled cDNA using […] (Amersham) by reverse transcriptase (Clontech). Chroma Spin columns (Clontech) were used to purify labeled cDNA. Atlas cDNA probe was denatured with 1M NaOH/10 mM EDTA and neutralized with 1M NaH2PO4 and C0t-1 DNA at 68° C. Prehybridization solution was discarded and arrays were hybridized overnight. Arrrays were washed 4 times by using 2×SSC/1% SDS and 2 times by using 0.1×SSC/0.5% SDS. Membranes were sealed and exposed to a phosphoscreen (Molecular Dynamics). The expression levels were quantified using 8 bit gray levels using image analysis software (Imagene 4.2, Biodiscovery; Inc).
For the Atlas Human cDNA Expression array, 588 genes were subdivided into these six functional groups: (A) Oncogenes, Tumor suppressors Cell Cycle regulators, (B) Ion channels and transport, Modulators, stress response, (C) Apoptosis, DNA synthesis, repair and recombination, (D) Transcription factors, DNA binding proteins, (E) Receptors, Cell surface antigens, Cell adhesion & (F) Growth factors, cytokines, chemokines, Interleukins, Hormones. The letters correspond to individual quadrants on the array and may be noted as the first letter in each abbreviation in Table 4.
Spots on the macro arrays (5, 50 Tm and control) were analyzed using the spot finder technique in the Imagene software. The integrity and fragmentation: due to saturated pixels, of the spots was assessed and appropriate background measurements were chosen to detect signals. […] All drug treated samples (5, 50TM) were compared to no drug controls using a linear regression method for log2 transformed density readings (Genesight 3.1, Biodiscovery). A piecewise linear regression method (3 bins, minimum of 20 elements per bin) was used normalize density readings across the three arrays to minimize the effect of low expression and saturated signals on the regression. All housekeeping genes were monitored for detection of false positive signals.

MOLT-3 T-lymphoma cells = test: Confocal laser scanning microscopy of mitotic spindle, MOLT-3; format: cell-based, human; settings: 100 μM
Procedure: Immunofluorenscence was used to examine the spindle features of human cancer cell lines treated with Compound 003 or 0.5% DMSO. Initially, cells at log phase were seeded onto sterile 22 mm coverslips in six -well culture plates. 24 hours later, the cells were treated with compound 003 for 2 hours at 37° C., 5% C02, fixed in methanol (−20° C. 15 min) followed by a 15 minute incubation with PBS +0.1.% Tx-100. The coverslips were incubated with antibodies raised against α-tubulin, γ-tubulin (Sigma Chemical Co., St Louis, Mo.) (40 min 37° C.), washed in PBS-Tx-100, and incubated with an appropriate secondary antibody conjugated to FITC (Jackson ImmunoResearch, Westgrove, Pa.). Cellular DNA was labeled with 5 μM TOTO3 (Molecular Probes, Eugene, Oreg.) for 20 minutes. Coverslips were immediately inverted onto slides in Vectashield (Vector Labs, Burlingame, Calif.) to prevent photobleaching, sealed with nail varnish and stored at −20° C. The slides were examined using a Bio-Rad MRC-1024 Laser Scanning Confocal Microscope equipped with a Kr/Ar laser (BioRad, Hercules, Calif.) mounted on a Nikon Eclipse E800 upright microscope with high numerical aperture objectives (Nikon, Melville, N.Y.). Digital data were processed using Lasersharp (BioRad) and Adobe Photoshop software (Adobe Systems, Mountain View, Calif.). […]

[3] = tested on: DAUDI, human Burkitt's lymphoma; test: DNA flow cytometry of cell cycle arrest, DAUDI; format: cell-based; settings: 100 μM, 48 hour
Procedure: as §2

COC(=O)C(C)NP(=O)(OCC1OC(n2cc(C)c(=O)[nH]c2=O)CC1N=[N+]=[N-])Oc1ccc(OC)cc1 (centres unmarked) [Compound 003, 3′-azidothymidine 5′-[p-methoxyphenylmethoxyalaninyl phosphate]]
decomposition product ([1]; intestinal fluid): decomposed to form ala-AZT-MP | stability ([1]; simulated intestinal fluid, 500 μM, 37° C.): unstable | cell cycle arrest (DT40, chicken B lymphoma): caused G2 arrest | decomposition product ([2]; gastric fluid): quickly decomposed to yield a intermediate product | stability ([2]; simulated gastric fluid, 500 μM, 37° C.): unstable | decreased expression of GADD 153 gene (NALM6 cells): ~3.5 fold | downregulation of c-jun proto-oncogene (NALM6 cells): ~2 fold | increase in the gene for myeloid cell nuclear differentiation antigen (MNDA) (NALM6 cells; 50 μM): ~4 fold | increased expression of FAN gene (NALM6 cells; 50 μM): 3 fold | mitotic spindle formation (MOLT-3 T-lymphoma cells): induced aberrant multipolar spindle formation | cell cycle arrest [3]: caused G2 arrest
